Marks after values point to notes of the source that are not given here.
Key:
hA1AR [1] = target: T1, hA1AR (Homo sapiens, UniProt P30542); details: for agonist character at the A1AR (full / partial agonist): cyclic AMP assay, hA1AR
T1 sequence (P30542 1-326): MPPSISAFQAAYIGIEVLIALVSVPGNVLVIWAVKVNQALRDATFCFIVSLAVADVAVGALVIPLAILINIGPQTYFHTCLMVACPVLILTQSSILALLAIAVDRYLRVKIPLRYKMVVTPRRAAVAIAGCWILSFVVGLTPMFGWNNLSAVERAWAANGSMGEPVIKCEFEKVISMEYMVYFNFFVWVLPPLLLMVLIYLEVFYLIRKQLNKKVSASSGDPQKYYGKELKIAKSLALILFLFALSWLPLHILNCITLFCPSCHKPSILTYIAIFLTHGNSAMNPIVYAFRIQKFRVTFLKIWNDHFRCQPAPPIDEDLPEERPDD

hA1AR [2] = target: T1, hA1AR; experiment: Radioligand binding at hA1AR, [3H]R-PIA, membranes of CHO cells; details: human orthologue more potent than rat
A3AR = details: read-out: Affinity Ki, A3; human unless noted; ref de Zwaart et al.[38]; cited from earlier work
rat A1AR = details: ref Jacobson et al.[39]; cited from earlier work
rat A2AAR = details: ref Jacobson et al.[39]; cited from earlier work
hA2AAR = hA2AAR (Homo sapiens, UniProt P29274); experiment: Stimulation of cyclic AMP production in A2AAR-expressing CHO cells; assay type: cell-based; details: cyclic AMP assay
Sequence of hA2AAR (P29274 whole entry): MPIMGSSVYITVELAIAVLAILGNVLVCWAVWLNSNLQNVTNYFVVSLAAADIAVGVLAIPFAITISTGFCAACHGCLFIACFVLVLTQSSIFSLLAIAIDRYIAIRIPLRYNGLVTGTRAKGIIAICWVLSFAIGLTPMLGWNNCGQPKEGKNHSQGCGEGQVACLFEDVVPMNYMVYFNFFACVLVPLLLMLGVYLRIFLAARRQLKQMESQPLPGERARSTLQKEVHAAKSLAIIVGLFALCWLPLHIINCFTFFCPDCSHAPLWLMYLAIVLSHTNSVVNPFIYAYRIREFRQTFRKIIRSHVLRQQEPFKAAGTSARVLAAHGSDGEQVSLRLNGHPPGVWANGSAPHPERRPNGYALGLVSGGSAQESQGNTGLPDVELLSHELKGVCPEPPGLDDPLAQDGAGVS

Structure (SMILES): CCNC(=O)[C@H]1O[C@@H](n2cnc3c(N)ncnc32)[C@H](O)[C@@H]1O [Compound 1, 5′-N-ethylcarboxamidoadenosine, reference compound]
- Activation of A1, % of 1, 10 μM (hA1AR [1]; single point at 10 μM, effect of full agonist 1 = 100%, hA1AR CHO cells): 100 % of 1

Structure (SMILES): Nc1ncnc2c1ncn2[C@@H]1O[C@H](C(=O)NCC(F)(F)F)[C@@H](O)[C@H]1O [Compound 5]
- difference between rat and human A1AR binding affinities (hA1AR [2]): approximately 100 fold
- agonist character at the A1AR (full / partial agonist) (hA1AR [1]): partial agonists

Structure (SMILES): Nc1ncnc2c1ncn2[C@@H]1O[C@H](C(=O)NCCCl)[C@@H](O)[C@H]1O [Compound 6, reference compound]
- Ki (A3AR): 332 nM

Structure (SMILES): NCCNC(=O)[C@H]1O[C@@H](n2cnc3c(N)ncnc32)[C@H](O)[C@@H]1O [Compound 11]
- % inhibition, A1 (rat) (rat A1AR): (>10%, rat) ^e
- % inhibition, A2A (rat) (rat A2AAR): > 10%

Structure (SMILES): Nc1ncnc2c1ncn2[C@@H]1O[C@H](C(=O)NC2CC2)[C@@H](O)[C@H]1O [Compound 16, reference compound]
- agonist character at the A2AAR (full agonist) (hA2AAR): full agonists
- agonist character at the A1AR (full / partial agonist) (hA1AR [1]): full agonists

Structure (SMILES): Nc1ncnc2c1ncn2[C@@H]1O[C@H](C(=O)NC2CCC2)[C@@H](O)[C@H]1O [Compound 18]
- agonist character at the A2AAR (full agonist) (hA2AAR): full agonists
- Ki (A3AR): 23 nM
- agonist character at the A1AR (full / partial agonist) (hA1AR [1]): partial agonist

Structure (SMILES): Nc1ncnc2c1ncn2[C@@H]1O[C@H](C(=O)NC2CCCC2)[C@@H](O)[C@H]1O [Compound 22]
- Ki (A3AR): 32 nM
- agonist character at the A1AR (full / partial agonist) (hA1AR [1]): full agonists

— publication PMC3479662 (Journal of medicinal chemistry, 2012)
